Assay results published in the NIST ThermoML archive (doi:10.1016/j.jct.2009.06.021).

What was measured:
[1] = for surface tension liquid-gas: Maximal bubble pressure; for mass density: 101.33 kPa, Liquid, Vibrating tube method
[2] = xn = mol fraction of the nth substance listed; settings: for surface tension liquid-gas: Maximal bubble pressure; for mass density: 101 kPa, Liquid, Vibrating tube method

ClC(Cl)(Cl)Cl [tetrachloromethane]
[1]
Settings | mass density [kg/m3] | surface tension liquid-gas [mN/m]
298.15 K | 1584.36 | 24.2
303.15 K | 1574.61 | 23.7
308.15 K | 1564.83 | 23
313.15 K | 1554.96 | 22.3

C[S+](C)[O-] [dimethyl sulfoxide]
[1]
Settings | mass density [kg/m3] | surface tension liquid-gas [mN/m]
298.15 K | 1095.35 | 42.5
303.15 K | 1090.33 | 42
308.15 K | 1085.32 | 41.5
313.15 K | 1080.29 | 41

CCCCS(=O)CCCC [dibutyl sulfoxide] + ClC(Cl)(Cl)Cl
[2], 313.15 K
Settings | mass density [kg/m3] | surface tension liquid-gas [mN/m]
x2 = 0.1074 | 963.82 | –
x2 = 0.2232 | – | 28
x2 = 0.2288 | 1017.38 | –
x2 = 0.303 | 1052.44 | –
x2 = 0.4057 | 1106.17 | –
x2 = 0.4457 | – | 27.3
x2 = 0.4984 | 1157.99 | –
x2 = 0.51 | – | 27
x2 = 0.5476 | – | 26.7
x2 = 0.601 | 1222.74 | –
x2 = 0.6539 | – | 25.9
x2 = 0.7009 | 1292.11 | –
x2 = 0.7038 | – | 25.4
x2 = 0.7998 | – | 24.5
x2 = 0.8019 | 1370.59 | –
x2 = 0.8962 | – | 23.5

CC[S+]([O-])CC [diethyl sulfoxide] + ClC(Cl)(Cl)Cl
[2]
Settings | mass density, 298.15 K [kg/m3] | mass density, 303.15 K [kg/m3] | mass density, 308.15 K [kg/m3] | mass density, 313.15 K [kg/m3] | surface tension liquid-gas, 298.15 K [mN/m] | surface tension liquid-gas, 303.15 K [mN/m] | surface tension liquid-gas, 308.15 K [mN/m] | surface tension liquid-gas, 313.15 K [mN/m]
x2 = 0.0408 | 1036.23 | 1031.26 | 1024.88 | 1020.51 | – | – | – | –
x2 = 0.1016 | – | – | – | – | 35 | 34.7 | 34.1 | 33.6
x2 = 0.1065 | 1074.77 | 1069.42 | 1064.04 | 1058.67 | – | – | – | –
x2 = 0.218 | – | – | – | – | 33.9 | 33.4 | 32.7 | 32.1
x2 = 0.2249 | 1142.65 | 1137.29 | 1131.92 | 1126.55 | – | – | – | –
x2 = 0.3172 | – | – | – | – | 32 | 31.5 | 30.9 | 30.3
x2 = 0.3231 | 1198.5 | 1192.67 | 1186.82 | 1180.98 | – | – | – | –
x2 = 0.4093 | – | – | – | – | 30.3 | 29.8 | 29.2 | 28.6
x2 = 0.4567 | 1273.33 | 1266.87 | 1260.4 | 1253.92 | – | – | – | –
x2 = 0.4782 | – | – | – | – | 29.1 | 28.6 | 28.1 | 27.6
x2 = 0.5102 | – | – | – | – | 28.5 | 28 | 27.6 | 27.1
x2 = 0.6562 | – | – | – | – | 27 | 26.5 | 25.9 | 25.3
x2 = 0.7363 | 1433.49 | 1425.5 | 1417.48 | 1409.44 | – | – | – | –
x2 = 0.7512 | – | – | – | – | 26.2 | 25.7 | 25.1 | 24.5
x2 = 0.8701 | – | – | – | – | 25.3 | 24.7 | 24.1 | 23.5
x2 = 0.8985 | 1527.46 | 1519.07 | 1509.96 | 1500.84 | – | – | – | –
x2 = 0.9419 | – | – | – | – | 24.6 | 24 | 23.5 | 22.9
x2 = 0.9533 | 1558.34 | 1548.91 | 1539.42 | 1529.92 | – | – | – | –

CCCCS(=O)CCCC [dibutyl sulfoxide]
[1], 313.15 K
Settings | mass density [kg/m3] | surface tension liquid-gas [mN/m]
– | 922.34 | 28.5

CCCS(=O)CCC [dipropyl sulfoxide] + ClC(Cl)(Cl)Cl
[2]
Settings | mass density, 298.15 K [kg/m3] | mass density, 303.15 K [kg/m3] | mass density, 308.15 K [kg/m3] | mass density, 313.15 K [kg/m3] | surface tension liquid-gas, 298.15 K [mN/m] | surface tension liquid-gas, 303.15 K [mN/m] | surface tension liquid-gas, 308.15 K [mN/m] | surface tension liquid-gas, 313.15 K [mN/m]
x2 = 0.0837 | 997.89 | 993.53 | 989.15 | 984.79 | – | – | – | –
x2 = 0.2049 | – | – | – | – | 31.2 | 30.8 | 30.4 | 29.9
x2 = 0.2132 | 1061.92 | 1057.03 | 1052.27 | 1047.44 | – | – | – | –
x2 = 0.2784 | 1097.07 | 1091.98 | 1086.9 | 1081.81 | – | – | – | –
x2 = 0.2998 | – | – | – | – | 30.8 | 30.4 | 29.9 | 29.5
x2 = 0.4165 | – | – | – | – | 30.4 | 29.8 | 29.3 | 28.7
x2 = 0.4545 | 1197.46 | 1191.59 | 1185.73 | 1179.84 | – | – | – | –
x2 = 0.5304 | – | – | – | – | 29.6 | 28.9 | 28.2 | 27.7
x2 = 0.6109 | – | – | – | – | 28.8 | 28.1 | 27.5 | 26.9
x2 = 0.6285 | 1305.93 | 1299.22 | 1292.38 | 1285.53 | – | – | – | –
x2 = 0.704 | 1356.22 | 1348.94 | 1341.67 | 1334.38 | – | – | – | –
x2 = 0.7078 | – | – | – | – | 27.6 | 26.9 | 26.2 | 25.7
x2 = 0.8055 | – | – | – | – | 26.3 | 25.7 | 25.1 | 24.5
x2 = 0.8468 | 1461.39 | 1453.03 | 1444.65 | 1436.24 | – | – | – | –
x2 = 0.8547 | 1466.95 | 1458.55 | 1450.15 | 1441.7 | – | – | – | –
x2 = 0.8995 | – | – | – | – | 25.3 | 24.7 | 24.1 | 23.5
x2 = 0.9178 | 1516.99 | 1508.02 | 1499.04 | 1490.03 | – | – | – | –
x2 = 0.9588 | 1550.62 | 1541.21 | 1531.83 | 1522.41 | – | – | – | –

CCCS(=O)CCC [dipropyl sulfoxide]
[1]
Settings | mass density [kg/m3] | surface tension liquid-gas [mN/m]
298.15 K | 957.77 | 32.6
303.15 K | 953.67 | 32
308.15 K | 949.58 | 31.5
313.15 K | 945.5 | 31

CC[S+]([O-])CC [diethyl sulfoxide]
[1]
Settings | mass density [kg/m3] | surface tension liquid-gas [mN/m]
298.15 K | 1009.51 | 34.6
303.15 K | 1005.14 | 34.3
308.15 K | 1000.77 | 34
313.15 K | 996.4 | 33.7
